Results: patent US20220169680A1 (priority 2018, published 2022)
Entries after “also recorded” stand apart in the source; their conditions may differ. Read-outs that look alike come from different tables or passages of the source.

How the values were obtained:
A549 cells [1] = format: cell-based
A549 cells [2] = format: cell-based; remark: listed apart in the source
A549 cells [3] = format: cell-based; remark: listed apart in the source
[4] = system: 3′ UTR region of RELA gene; format: cell-based
A549 cells [5] = format: cell-based; remark: listed apart in the source
[6] = system: 293T cell, HUVEC cell, HCT-116 cell, MKN-45 cell, MRCS cell, U397 cell and ESF-1 cell; format: cell-based
HeLa cells = format: cell-based
A549 cells [7] = format: cell-based; remark: listed apart in the source
MRCS cells = format: cell-based
HEK293T cells = format: cell-based
A549 cells [8] = format: cell-based; remark: listed apart in the source
293T cells = format: cell-based
[9] = system: LPS-induced acute lung injury in mice; design: species or system C57 BL/6 male mice; conditions: mouse, in vivo
A549 cells [10] = format: cell-based; remark: listed apart in the source
A549 cells [11] = format: cell-based; remark: listed apart in the source
A549 cells [12] = format: cell-based; remark: listed apart in the source

## RLFFKCIYRRLKYGLKRG [Jilin-2004(H5N1)-M2-45-62]
A549 cells [1]
  ability to carry small RNA (PGY-sRNA-26) into cells, qPCR: had the ability to carry small RNA into the cells
  ability to carry small RNA into cells compared with the transfection reagent RNAiMax group, qPCR: stronger than the transfection reagent RNAiMax group
  ability to carry small RNA into cells, qPCR: all had the ability to carry small RNA into cells
A549 cells [2]
  cell-penetrating peptide function (confocal imaging): all had cell-penetrating peptide functions
A549 cells [3]
  ability to carry small RNA compared with TAT at the same concentration: significantly stronger
  carrying Cy3-labeled small RNA into cells: can carry small RNA into cells
[4]
  ability to carry PGY-dsRNA-6 compared with positive control TAT: stronger than that of the positive control TAT
  carrying PGY-dsRNA-6 into cells and fulfilling its function (luciferase reporter): could all carry PGY-dsRNA-6 into cells and fulfill its function
A549 cells [5]
  ability to carry small RNA compared with TAT at the same concentration: significantly stronger
  carrying FAM-labeled small RNA into cells: can all carry small RNA into cells
[6]
  entry effect compared with other fragments in different cell lines: even better entry effects
HeLa cells
  cell penetration properties: consistent with the results obtained using A549 cells
A549 cells [7]
  cell entry: still had a significant cell entry effect; also recorded: entered A549 cells
  cell entry at lower concentrations: could still enter A549 cells
  cell entry effect compared with TAT positive control: stronger than that of the TAT polypeptide
  cell entry effect compared with existing cell-penetrating peptides (Table 4): significantly better cell entry effects than existing cell-penetrating peptides
  cell entry of FITC-labeled polypeptide: could achieve significant A549 cell entry at all concentrations tested
  cell-penetrating peptide effect: a good cell-penetrating peptide effect
  cell-penetrating peptide function compared with positive control TAT: stronger than that of the positive control TAT
  entry effect compared with FITC-labeled TAT (positive control): much stronger than FITC-labeled TAT polypeptide
MRCS cells
  cell penetration properties: consistent with the results obtained using A549 cells
HEK293T cells
  carrying NS1-GFP plasmid into cells and GFP expression: could carry NS1-GFP plasmid into HEK293 cells, and GFP protein was expressed in the nucleus

## DRFFFKRIYRRLKYRLKRRPST [Jilin-2004(H5N1)-M2-44-65 mut8]
A549 cells [8]
  ability to carry small RNA compared with the other two polypeptides tested: even stronger
  carrying Cy3-labeled small RNA into cells: can carry small RNA into cells
  effect compared with transfection reagent RNAiMax: stronger than that of the transfection reagent RNAiMax
A549 cells [7]
  cell-penetrating peptide function compared with the parent polypeptide: stronger than that of the parent Jilin-2004(H5N1)-M2-44-65 polypeptide
MRCS cells
  cell-penetrating peptide function compared with the parent polypeptide: stronger than that of the parent Jilin-2004(H5N1)-M2-44-65 polypeptide
293T cells
  cell-penetrating peptide function compared with the parent polypeptide: stronger than that of the parent Jilin-2004(H5N1)-M2-44-65 polypeptide

## GRKKRRQRRRPPQ [TAT, reference compound]
A549 cells [1]
  ability to carry small RNA (PGY-sRNA-26) into cells, qPCR: very weak
A549 cells [2]
  cell entry of rhodamine-labeled polypeptide: could all enter A549 cells
[9]
  entry of miR1246 antagomir into lung tissue of mice: almost no effect
A549 cells [7]
  cell entry: did not show cell entry
  cell entry after 5 min incubation: the entry into the cell was observed
  cell entry at 1 h: the effect was obvious
HEK293T cells
  carrying NS1-GFP plasmid into cells and GFP expression: almost no expression of GFP fluorescent protein

## DRLFFKCIYRRLKYGLKRRPST [Jilin-2004(H5N1)-M2-44-65 mut25]
A549 cells [7]
  cell-penetrating peptide function compared with the parent polypeptide: stronger than that of the parent Jilin-2004(H5N1)-M2-44-65 polypeptide
MRCS cells
  cell-penetrating peptide function compared with the parent polypeptide: stronger than that of the parent Jilin-2004(H5N1)-M2-44-65 polypeptide
293T cells
  cell-penetrating peptide function compared with the parent polypeptide: stronger than that of the parent Jilin-2004(H5N1)-M2-44-65 polypeptide

## DRFFFKRIYRRLKYRLKRRPKV [Jilin-2004(H5N1)-M2-44-65 mut9]
A549 cells [7]
  cell-penetrating peptide function compared with the parent polypeptide: stronger than that of the parent Jilin-2004(H5N1)-M2-44-65 polypeptide
MRCS cells
  cell-penetrating peptide function compared with the parent polypeptide: stronger than that of the parent Jilin-2004(H5N1)-M2-44-65 polypeptide
293T cells
  cell-penetrating peptide function compared with the parent polypeptide: stronger than that of the parent Jilin-2004(H5N1)-M2-44-65 polypeptide

## DRFFFKRIFRRFKFRLKRRPST [Jilin-2004(H5N1)-M2-44-65 mut12]
A549 cells [7]
  cell-penetrating peptide function compared with the parent polypeptide: stronger than that of the parent Jilin-2004(H5N1)-M2-44-65 polypeptide
MRCS cells
  cell-penetrating peptide function compared with the parent polypeptide: stronger than that of the parent Jilin-2004(H5N1)-M2-44-65 polypeptide
293T cells
  cell-penetrating peptide function compared with the parent polypeptide: stronger than that of the parent Jilin-2004(H5N1)-M2-44-65 polypeptide

## DRLFFKCIYRRLKYRLKRRPST [Jilin-2004(H5N1)-M2-44-65 mut26]
A549 cells [1]
  ability to carry small RNA into cells compared with the transfection reagent RNAiMax group, qPCR: stronger than the transfection reagent RNAiMax group
A549 cells [7]
  cell-penetrating peptide function compared with the parent polypeptide: stronger than that of the parent Jilin-2004(H5N1)-M2-44-65 polypeptide
293T cells
  cell-penetrating peptide function compared with the parent polypeptide: stronger than that of the parent Jilin-2004(H5N1)-M2-44-65 polypeptide

## CIYRRLKYGLKRGPSTEG [Jilin-2004(H5N1)-M2-50-67]
HeLa cells
  cell penetration properties: consistent with the results obtained using A549 cells
A549 cells [7]
  cell entry: entered A549 cells
  cell entry at lower concentrations: could still enter A549 cells
MRCS cells
  cell penetration properties: consistent with the results obtained using A549 cells

## DRLFFKCIYRRLKYGLKRGPST [Jilin-2004(H5N1)-M2-44-65]
A549 cells [1]
  ability to carry small RNA into cells compared with the transfection reagent RNAiMax group, qPCR: stronger than the transfection reagent RNAiMax group
  ability to carry small RNA into cells, qPCR: all had the ability to carry small RNA into cells
A549 cells [8]
  carrying Cy3-labeled small RNA into cells: can carry small RNA into cells
  effect compared with transfection reagent RNAiMax: stronger than that of the transfection reagent RNAiMax
A549 cells [10]
  carrying Cy3-labeled small RNA into cells (super high resolution microscope): can carry Cy3-labeled small RNA into A549 cells
  effect compared with RNAiMax or TAT (super high resolution microscope): stronger than that of the transfection reagent RNAiMax or of TAT
[6]
  entry effect compared with other fragments in different cell lines: even better entry effects
A549 cells [7]
  cell entry effect compared with existing cell-penetrating peptides (Table 4): significantly better cell entry effects than existing cell-penetrating peptides
  cell-penetrating peptide function compared with positive control TAT: stronger cell-penetrating peptide functions than that of the positive control TAT
  entry effect compared with other C-terminally truncated polypeptides: even better entry effects than other polypeptides
MRCS cells
  cell-penetrating peptide function compared with positive control TAT: stronger than that of the positive control TAT
293T cells
  cell-penetrating peptide function compared with positive control TAT: stronger than that of the positive control TAT

## FFKCIYRRLKYGLKRGPS [Jilin-2004(H5N1)-M2-47-64]
HeLa cells
  cell penetration properties: consistent with the results obtained using A549 cells
A549 cells [7]
  cell entry: entered A549 cells
  cell entry at lower concentrations: could still enter A549 cells
  cell entry effect compared with TAT positive control: stronger than that of the TAT polypeptide
MRCS cells
  cell penetration properties: consistent with the results obtained using A549 cells

## DRLFFKCIYRRLK [Jilin-2004(H5N1)-M2-44-56]
A549 cells [8]
  carrying Cy3-labeled small RNA into cells: can carry small RNA into cells
  effect compared with transfection reagent RNAiMax: stronger than that of the transfection reagent RNAiMax
A549 cells [11]
  ability to carry proteins into the cell compared with TAT at the same concentration: significantly stronger
  carrying β-galactosidase protein into the cell: could carry β-galactosidase protein into the cell
[4]
  ability to carry PGY-dsRNA-6 compared with positive control TAT: stronger than that of the positive control TAT
  carrying PGY-dsRNA-6 into cells and fulfilling its function (luciferase reporter): could all carry PGY-dsRNA-6 into cells and fulfill its function
A549 cells [5]
  ability to carry small RNA compared with TAT at the same concentration: significantly stronger
  carrying FAM-labeled small RNA into cells: can all carry small RNA into cells
A549 cells [7]
  cell-penetrating peptide function compared with positive control TAT: stronger than that of the positive control TAT
A549 cells [12]
  cell entry of polypeptide carrying GFP protein: observed
  effect of carrying GFP protein compared with positive control TAT: stronger than that of the positive control TAT
